Test results as given in patent publication US20040192777A1, “Novel anticancer diterpene compounds, process and uses thereof” (COUNCIL OF SCIENTIFIC AND INDUSTRIAL, priority 2003, published 2004).

What was measured:
Type in all cases: cell-based
[1] = tested on: human liver cancer cells (Hep-2); assay: In vitro cytotoxicity (SRB) against Hep-2; details: Hep-2 Liver
Method: The human cancer cell lines were obtained either from National center for cell science, Pune, India or National Cancer Institute, Frederick, MD, U.S.A. […] Cells with cell viability of more than 97% by trypan blue exclusion technique were used for determination of cytotoxicity. Compound 1 was dissolved in DMSO (dimethyl sulphoxide) to obtain a stock solution of 20 mg/ml. […] The blank wells for each cell line and concentration of test material were also included that contained equivalent amount of complete growth medium only. The plates were incubated at 37° C. in an atmosphere of 5% CO2 and 90% relative humidity in a carbon dioxide incubator. The experiment was carried out in triplicate. […] The equivalent amount of complete growth medium was added to control set. […] The plates were incubated at 4° C. for one hour to fix the cells attached to the bottom of the wells. Liquids of all the wells were gently pipetted out and discarded. The plates were washed five times with distilled water to remove TCA, growth medium, low molecular weight metabolites, serum proteins etc. Plates were air dried. Cell growth was measured by staining with sulforhodamine B dye (SRB). […] The optical density was recorded on ELISA reader at 540 nm. The cell growth in presence of test material was determined by subtracting mean OD value of respective blank from the mean OD value of experimental set. Like wise, cell growth in absence of test material (control set) and in presence of positive control was also determined. […] The human cancer cell lines were grown, harvested and cytotoxicity was determined exactly as mentioned in Example 3 except that the test material used was Compound 2 that was dissolved in DMSO and three working test solutions were prepared of the same concentrations as in Example 3.

[2] = tested on: human cervix cancer cell line (SiHa); assay: In vitro cytotoxicity (SRB) against SiHa
Method: (§1) The human cancer cell lines were obtained either from National center for cell science, Pune, India or National Cancer Institute, Frederick, MD, U.S.A. Cells were grown in tissue culture flasks in complete growth medium (RPMI-1640 medium with 2 mM glutamine, 100 μg/ml streptomycin, pH 7.4, sterilized by filtration and supplemented with 10% sterilized fetal calf serum and 100 units/ml penicillin before use) at 37° C. in an atmosphere of 5% CO2 and 90% relative humidity in a carbon dioxide incubator. The cells at subconfluent stage were harvested from the flask by treatment with trypsin (0.05% trypsin in PBS containing 0.02% EDTA) and suspended in complete growth medium. Cells with cell viability of more than 97% by trypan blue exclusion technique were used for determination of cytotoxicity.
(§2) Compound 1 was dissolved in DMSO (dimethyl sulphoxide) to obtain a stock solution of 20 mg/ml. The stock solution was serially diluted with complete growth medium containing 50 μg/ml of gentamycin to obtain three working test solutions of 200, 60 and 20 μg/ml.
(§3) The suspension of human cancer cell lines of required cell density in complete growth medium was prepared and cell suspension of each cell line was placed in 96-well tissue culture plate (100 μl per well) for control, Compound 1 and positive control(s). The blank wells for each cell line and concentration of test material were also included that contained equivalent amount of complete growth medium only. The plates were incubated at 37° C. in an atmosphere of 5% CO2 and 90% relative humidity in a carbon dioxide incubator. The experiment was carried out in triplicate.
(§4) After 24-hours of incubation, the working solutions of Compound 1 of different concentrations (100 μl) were added in the experimental wells and blanks whereas positive controls of required concentrations (100 μl) were added into wells for positive controls. The equivalent amount of complete growth medium was added to control set.
(§5) The plates were further incubated for 48-hours (at 37° C. in an atmosphere of 5% CO2 and 90% relative humidity in a carbon dioxide incubator) after addition of test material etc. and then the cell growth was stopped by gently layering of 50 μl of TCA (50% trichloroacetic acid) on top of the medium in all the wells. The plates were incubated at 4° C. for one hour to fix the cells attached to the bottom of the wells. Liquids of all the wells were gently pipetted out and discarded. The plates were washed five times with distilled water to remove TCA, growth medium, low molecular weight metabolites, serum proteins etc. Plates were air dried.
(§6) Cell growth was measured by staining with sulforhodamine B dye (SRB). The SRB solution (100 μl of 0.4% SRB in 1% acetic acid) was added to each well and the plates were incubated at room temperature for 30 minutes. The unbound SRB was quickly removed by washing the wells five times with 1% acetic acid and plates were air dried. Tris-buffer (100 μl of 0.01M, pH 10.4) was added to all the wells and plates were gently stirred for 5 minutes on a mechanical stirrer. The optical density was recorded on ELISA reader at 540 nm.
(§7) The cell growth in presence of test material was determined by subtracting mean OD value of respective blank from the mean OD value of experimental set. Like wise, cell growth in absence of test material (control set) and in presence of positive control was also determined. The per cent cell growth in presence of test material was determined considering the cell growth in absence of test material as 100% and in turn per cent inhibition was calculated.
(§8) The human cancer cell lines were grown, harvested and cytotoxicity was determined exactly as mentioned in Example 3 except that the test material used was Compound 2 that was dissolved in DMSO and three working test solutions were prepared of the same concentrations as in Example 3.

[3] = tested on: human ovary cancer cells (OVCAR-5); assay: In vitro cytotoxicity (SRB) against OVCAR-5; details: OVCAR-5 Ovary; for Growth inhibition, %: 48 h
Method: as §1, §2, §3, §4, §5, §6, §7, §8

[4] = tested on: human lung cancer cells (A-549); assay: In vitro cytotoxicity (SRB) against A-549; details: A-549 Lung; for Growth inhibition, %: 48 h
Method: as §1, §2, §3, §4, §5, §6, §7, §8

[5] = tested on: human lung cancer cell line HOP-62; assay: In vitro cytotoxicity (SRB) against HOP-62; details: HOP-62 Lung; for Growth inhibition, %: 48 h
Method: as §1, §2, §3, §4, §5, §6, §7, §8

[6] = tested on: human CNS cancer cells (SK-N-MC); assay: In vitro cytotoxicity (SRB) against SK-N-MC; details: 48 h
Method: as §1, §2, §3, §4, §5, §6, §7, §8

[7] = tested on: human colon cancer cells (HT-29); assay: In vitro cytotoxicity (SRB) against HT-29; details: HT-29 Colon
Method: as §1, §2, §3, §4, §5, §6, §7, §8

[8] = tested on: human prostate cancer cell line PC-3; assay: In vitro cytotoxicity (SRB) against PC-3; details: PC-3 Prostate
Method: as §1, §2, §3, §4, §5, §6, §7, §8

[9] = tested on: human cancer cell lines; assay: In vitro cytotoxicity (SRB), span over the cell line panel; details: at 100 μg/ml, all human cancer cell lines studied except HOP-62
Method: as §1, with “cytotoxicity. […]” for “cytotoxicity.”
Cell growth was measured by staining with sulforhodamine B dye (SRB). […] The optical density was recorded on ELISA reader at 540 nm.
as §7, with “calculated. […]” for “calculated.”

[10] = Homo sapiens, 1 × 10^−4M, positive control, read-out: Growth inhibition, %
[11] = Homo sapiens, 1 × 10^−5M, positive control, read-out: Growth inhibition, %

| Compound | Growth inhibition, % ([1]; 10 μg/ml, 48 h) | Growth inhibition, % ([1]; 30 μg/ml, 48 h) | Growth inhibition, % ([1]; 100 μg/ml, 48 h) | Growth inhibition, % ([2]; 10 μg/ml, 48 h) | Growth inhibition, % ([2]; 30 μg/ml, 48 h) | Growth inhibition, % ([2]; 100 μg/ml, 48 h) | Growth inhibition, % ([3]; 10 μg/ml) | Growth inhibition, % ([3]; 30 μg/ml) | Growth inhibition, % ([3]; 100 μg/ml) | Growth inhibition, % ([4]; 10 μg/ml) | Growth inhibition, % ([4]; 30 μg/ml) | Growth inhibition, % ([4]; 100 μg/ml) | Growth inhibition, % ([5]; 10 μg/ml) | Growth inhibition, % ([5]; 30 μg/ml) | Growth inhibition, % ([5]; 100 μg/ml) | Growth inhibition, % ([6]; 10 μg/ml) | Growth inhibition, % ([6]; 30 μg/ml) | Growth inhibition, % ([6]; 100 μg/ml) | Growth inhibition, % ([7]; 10 μg/ml, 48 h) | Growth inhibition, % ([7]; 30 μg/ml, 48 h) | other results |
| --- | --- | --- | --- | --- | --- | --- | --- | --- | --- | --- | --- | --- | --- | --- | --- | --- | --- | --- | --- | --- | --- |
| C=C[C@]1(C)C=C2CCC3[C@@](C)(CCC[C@@]3(C)C(=O)O)C2CC1 (stereo partly drawn) [Compound 1, ent-pimmarane 8(14),15-diene-19 oic acid] | 20% | 68% | 80% | 00% | 14% | 41% | 00% | 66% | 76% | 13% | 72% | 94% | 00% | 00% | 03% | 00% | 75% | 88% | 02% | 70% | Growth inhibition, % ([7]; 100 μg/ml, 48 h): 94%; Growth inhibition, % ([8]; 10 μg/ml, 48 h): 05%; Growth inhibition, % ([8]; 30 μg/ml, 48 h): 78%; Growth inhibition, % ([8]; 100 μg/ml, 48 h): 97%; inhibition of cell growth, span over the cell lines [9]: 41-97% |
| C=CC1(C)CC=C2C(=CCC3C(C)(C(=O)O)CCCC23C)C1 (stereo not drawn) [Compound 2, ent-pimmarane 7(8),9(11),15 triene-19 oic acid] | 18% | 70% | 91% | 00% | 8% | 38% | 12% | 67% | 96% | 09% | 71% | 97% | 00% | 00% | 00% | 22% | 85% | 92% | 00% | 70% | Growth inhibition, % ([7]; 100 μg/ml, 48 h): 95%; Growth inhibition, % ([8]; 10 μg/ml, 48 h): 00%; Growth inhibition, % ([8]; 30 μg/ml, 48 h): 83%; Growth inhibition, % ([8]; 100 μg/ml, 48 h): 94%; inhibition of cell growth, span over the cell lines [9]: 38-97% |
| O=c1[nH]cc(F)c(=O)[nH]1 [Compound 5FU, reference compound] |  |  |  |  |  |  |  |  |  |  |  |  |  |  |  |  |  |  |  |  | Growth inhibition, % ([2]; 1 × 10^−4M, positive control): 17%; Growth inhibition, % ([7]; 1 × 10^−4M, positive control): 43% |
| CO[C@@]12[C@H](COC(N)=O)C3=C(C(=O)C(C)=C(N)C3=O)N1C[C@@H]1N[C@@H]12 [Mytomycin C, reference compound] |  |  |  |  |  |  |  |  |  |  |  |  |  |  |  |  |  |  |  |  | Growth inhibition, % ([1]; 1 × 10^−5M, positive control): 87%; Growth inhibition, % ([8]; 1 × 10^−5M, positive control): 78% |
| CC/C(=C(\c1ccccc1)c1ccc(OCCN(C)C)cc1)c1ccccc1 [Tamoxifen, reference compound] |  |  |  |  |  |  |  |  |  |  |  |  |  |  |  |  |  |  |  |  | inhibition at 100 µM [3, 10]: 100%; inhibition at 10 µM [3, 11]: 0%; inhibition at 100 µM ([4]; Homo sapiens, A549, 1 × 10^−4M, positive control, read-out: Growth inhibition, %): 98%; inhibition at 10 µM ([4]; Homo sapiens, A549, 1 × 10^−5M, positive control, read-out: Growth inhibition, %): 19%; inhibition at 100 µM [5, 10]: 20%; inhibition at 10 µM [5, 11]: 2% |
